Legend:
Aedes aeqypti = assay: Mosquito (Aedes aeqypti) Larval Assay - 1st Instar Larvae; settings: first instar larvae, 25° C., motility at 24 hours, lowest dose to inhibit motility ≥50% of untreated controls, read-out: Minimum Effective Concentration (MEC)
Description: Mosquito (Aedes aeqypti) Larval Assay—1st Instar Larvae
Compounds were dissolved in DMSO and aliquots were spotted to empty wells. First instar larvae and maintenance media were added to the wells to obtain between 8 and 12 larvae per well in the appropriate final assay volume. Larvae were incubated in the treated media at 25° C. for 24 hours. Mosquito larvae motility was measured at 24 hours. Each compound was tested at half-log intervals, and endpoint results were recorded as Minimum Effective Concentration (MEC) in μM. MEC is an objective assessment of organism motility, and is the lowest dose to inhibit motility≧50% of untreated controls.

Ornithidorus turicata = assay: Soft Tick (Ornithidorus turicata) Blood Feed Assay; settings: nymphs fed on treated citrated bovine blood; knockdown and/or death at 24 and 72 hours
Description: Soft Tick (Ornithidorus turicata) Blood Feed Assay
Compounds were dissolved in DMSO and aliquots were added to citrated bovine blood in membrane covered wells warmed to 37° C. 5 nymphs were placed on the membrane, allowed to feed to repleation, and were placed in observation wells. […] Endpoint results for subjective visual assessment of organism viability were recorded as LD100 (the lowest dose to cause 100% mortality).

Ctenocephalides felis = assay: Flea (Ctenocephalides felis) Membrane Feed Assay-Adult; settings: adult fleas fed on treated citrated bovine blood, knockdown and/or death at 24 hours, lowest dose causing mortality ≥50%, read-out: Minimum Effective Concentration (MEC)
Description: Flea (Ctenocephalides felis) Membrane Feed Assay-Adult
Compounds of the present invention were dissolved in DMSO and aliquots added to citrated bovine blood in membrane covered wells pre-warmed to 37° C. Adult fleas were newly emerged (3-7 days) and unfed. Feeding wells containing approximately 10 adult fleas were placed onto the treated blood wells, and the fleas were allowed to feed on the treated blood for 24 hours. […] Each compound was tested at half-log intervals, and endpoint data was recorded as Minimum Effective Concentration (MEC) in μM. MEC is a subjective visual assessment of organism viability, and is the lowest dose observed to cause mortality≧50%.

Row | SMILES | minimal effective concentration (Aedes aeqypti) [µM] | LD100 (the lowest dose to cause 100% mortality) (Ornithidorus turicata) [µg/mL] | minimal effective concentration (Ctenocephalides felis) [µM]
1 | CC(C)C(=O)N1CC2(C1)OCc1cc(C3=NOC(c4cc(Cl)c(F)c(Cl)c4)(C(F)(F)F)C3)ncc12 (stereo not drawn) [Example 16, 1-(6′-(5-(3,5-dichloro-4-fluorophenyl)-5-(trifluoromethyl)-4,5-dihydroisoxazol-3-yl)-1′H-spiro[azetidine-3,3′-furo[3,4-c]pyridine]-1-yl)-2-methylpropan-1-one] | 0.001 | 0.03 | 0.1
2 | CC(C)C(=O)N1CC2(C1)OCc1cc(C3=NOC(c4cc(Cl)c(Cl)c(Cl)c4)(C(F)(F)F)C3)ncc12 (stereo not drawn) [Example 17, 2-methyl-1-(6′-(5-(3,4,5-trichlorophenyl)-5-(trifluoromethyl)-4,5-dihydroisoxazol-3-yl)-1′H-spiro[azetidine-3,3′-furo[3,4-c]pyridine]-1-yl)propan-1-one] | 0.01 | 0.03 | 0.1
3 | CC(C)C(=O)N1CC2(C1)OCc1cc(C3=NOC(c4cc(Cl)cc(Cl)c4)(C(F)(F)F)C3)ncc12 (stereo not drawn) [Example 18, 1-(6′-(5-(3,5-dichlorophenyl)-5-(trifluoromethyl)-4,5-dihydroisoxazol-3-yl)-1′H-spiro[azetidine-3,3′-furo[3,4-c]pyridine]-1-yl)-2-methylpropan-1-one] | 0.01 | 0.03 | 0.3
4 | CC(C)C(=O)N1CC2(C1)OCc1nc(C3=NOC(c4cc(Cl)c(F)c(Cl)c4)(C(F)(F)F)C3)ccc12 (stereo not drawn) [Example 10, 1-(2′-(5-(3,5-dichloro-4-fluorophenyl)-5-(trifluoromethyl)-4,5-dihydroisoxazol-3-yl)-7′H-spiro[azetidine-3,5′-furo[3,4-b]pyridine]-1-yl)-2-methylpropan-1-one] | 0.03 | 0.1 | 3
5 | CS(=O)(=O)CC(=O)N1CC2(C1)OCc1nc(C3=NOC(c4cc(Cl)c(Cl)c(Cl)c4)(C(F)(F)F)C3)ccc12 (stereo not drawn) [Example 9, 2-(methylsulfonyl)-1-(2′-(5-(3,4,5-trichlorophenyl)-5-(trifluoromethyl)-4,5-dihydroisoxazol-3-yl)-7′H-spiro[azetidine-3,5′-furo[3,4-b]pyridine]-1-yl)ethanone] | 0.3 | – | –
6 | CC(C)C(=O)N1CC2(C1)OCc1nc(C3=NOC(c4cc(Cl)cc(Cl)c4)(C(F)(F)F)C3)ccc12 (stereo not drawn) [Example 11, 1-(2′-(5-(3,5-dichlorophenyl)-5-(trifluoromethyl)-4,5-dihydroisoxazol-3-yl)-7′H-spiro[azetidine-3,5′-furo[3,4-b]pyridine]-1-yl)-2-methylpropan-1-one] | 0.3 | 0.3 | –
7 | CS(=O)(=O)CC(=O)N1CC2(C1)OCc1cc(C3=NOC(c4cc(Cl)c(Cl)c(Cl)c4)(C(F)(F)F)C3)ncc12 (stereo not drawn) [Example 14, 2-(methylsulfonyl)-1-(6′-(5-(3,4,5-trichlorophenyl)-5-(trifluoromethyl)-4,5-dihydroisoxazol-3-yl)-1′H-spiro[azetidine-3,3′-furo[3,4-c]pyridine]-1-yl)ethanone] | 0.01 | 0.3 | 1
8 | CC(C)C(=O)N1CC2(C1)OCc1nc(C3=NOC(c4cc(Cl)c(Cl)c(Cl)c4)(C(F)(F)F)C3)ccc12 (stereo not drawn) [Example 12, 2-methyl-1-(2′-(5-(3,4,5-trichlorophenyl)-5-(trifluoromethyl)-4,5-dihydroisoxazol-3-yl)-7′H-spiro[azetidine-3,5′-furo[3,4-b]pyridine]-1-yl)propan-1-one] | 0.1 | 0.3 | –
9 | CS(=O)(=O)CC(=O)N1CC2(C1)OCc1cc(C3=NOC(c4cc(Cl)cc(Cl)c4)(C(F)(F)F)C3)cnc12 (stereo not drawn) [Example 1, 3′-[5-(3,5-dichlorophenyl)-5-(trifluoromethyl)-4,5-dihydroisoxazol-3-yl]-1-[(methylsulfonyl)acetyl]-5′H-spiro[azetidin-3,7′-furo[3,4,b]pyridine]] | 0.1 | 0.1 | 3
10 | CS(=O)(=O)CC(=O)N1CC2(C1)OCc1nc(C3=NOC(c4cc(Cl)c(F)c(Cl)c4)(C(F)(F)F)C3)ccc12 (stereo not drawn) [Example 7, 1-(2′-(5-(3,5-dichloro-4-fluorophenyl)-5-(trifluoromethyl)-4,5-dihydroisoxazol-3-yl)-7′H-spiro[azetidine-3,5′-furo[3,4-b]pyridine]-1-yl)-2-(methylsulfonyl)ethanone] | 0.3 | – | –
11 | CS(=O)(=O)CC(=O)N1CC2(C1)OCc1nc(C3=NOC(c4cc(Cl)cc(Cl)c4)(C(F)(F)F)C3)ccc12 (stereo not drawn) [Example 8, 1-(2′-(5-(3,5-dichlorophenyl)-5-(trifluoromethyl)-4,5-dihydroisoxazol-3-yl)-7′H-spiro[azetidine-3,5′-furo[3,4-b]pyridine]-1-yl)-2-(methylsulfonyl)ethanone] | 0.3 | – | –
12 | CS(=O)(=O)CC(=O)N1CC2(C1)OCc1cc(C3=NOC(c4cc(Cl)c(F)c(Cl)c4)(C(F)(F)F)C3)ncc12 (stereo not drawn) [Example 13, 1-(6′-(5-(3,5-dichloro-4-fluorophenyl)-5-(trifluoromethyl)-4,5-di hydroisoxazol-3-yl)-1′H-spiro[azetidine-3,3′-furo[3,4-c]pyridine]-1-yl)-2-(methylsulfonyl)ethanone] | 0.01 | 0.1 | 1
13 | CS(=O)(=O)CC(=O)N1CC2(C1)OCc1cc(C3=NOC(c4cc(Cl)cc(Cl)c4)(C(F)(F)F)C3)ncc12 (stereo not drawn) [Example 15, 1-(6′-(5-(3,5-dichlorophenyl)-5-(trifluoromethyl)-4,5-dihydroisoxazol-3-yl)-1′H-spiro[azetidine-3,3′-furo[3,4-c]pyridine]-1-yl)-2-(methylsulfonyl)ethanone] | 0.03 | – | 3
14 | CC(C)C(=O)N1CC2(C1)OCc1cc(C3=NOC(c4cc(Cl)c(Cl)c(Cl)c4)(C(F)(F)F)C3)cnc12 (stereo not drawn) [Example 6, 1-isobutyryl-3′-[5-(3,4,5-trichlorophenyl)-5-(trifluoromethyl)-4,5-dihydroisoxazol-3-yl]-5′H-spiro[azetidin-3,7′-furo[3,4,b]pyridine]] | 0.01 | 0.03 | 1
15 | CS(=O)(=O)CC(=O)N1CC2(C1)OCc1cc(C3=NOC(c4cc(Cl)c(F)c(Cl)c4)(C(F)(F)F)C3)cnc12 (stereo not drawn) [Example 2, 3′-[5-(3,5-dichloro-4-fluorophenyl)-5-(trifluoromethyl)-4,5-dihydroisoxazol-3-yl]-1-[(methylsulfonyl)acetyl]-5′H-spiro[azetidin-3,7-furo[3,4,b]pyridine]] | 0.03 | 0.3 | 1
16 | CC(C)C(=O)N1CC2(C1)OCc1cc(C3=NOC(c4cc(Cl)cc(Cl)c4)(C(F)(F)F)C3)cnc12 (stereo not drawn) [Example 5, 3′-[5-(3,5-dichlorophenyl)-5-(trifluoromethyl)-4,5-dihydroisoxazol-3-yl]-1-isobutyryl-5′H-spiro[azetidin-3,7′-furo[3,4,b]pyridine]] | 0.03 | 0.03 | 1
17 | CC(C)C(=O)N1CC2(C1)OCc1cc(C3=NOC(c4cc(Cl)c(F)c(Cl)c4)(C(F)(F)F)C3)cnc12 (stereo not drawn) [Example 4, 3′-[5-(3,5-dichloro-4-fluorophenyl)-5-(trifluoromethyl)-4,5-dihydroisoxazol-3-yl]-1-isobutyryl-5′ H-spiro[azetidin-3,7′-furo[3,4,b]pyridine]] | 0.01 | 0.03 | 0.1
18 | CS(=O)(=O)CC(=O)N1CC2(C1)OCc1cc(C3=NOC(c4cc(Cl)c(Cl)c(Cl)c4)(C(F)(F)F)C3)cnc12 (stereo not drawn) [Example 3, 1-[(methylsulfonyl)acetyl]-3′-[5-(3,4,5-trichlorophenyl)-5-(trifluoromethyl)-4,5-dihydroisoxazol-3-yl]-5′H-spiro[azetidin-3,7′-furo[3,4,b]pyridine]] | 0.03 | 0.3 | 1

— US9131697B2, “Spirocyclic isoxazolines as antiparasitic agents” (Zoetis Services LLC, priority 2012, dated 2015)
